From the supplement of paper PMC10307832

Columns and labels:
Test in all cases: relative viability (nuclei count vs DMSO), 5 days (fraction); higher = more cells survive
[1] = system: A-427
In short: (§1)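 Nuclei were stained with Hoechst during a one-step fixation (final 0.05% Triton X-100, 1% formaldehyde, 1 ug/ml Hoechst) carried out 5 days after dosing, then counted on 4× images. The cells, lung cancer lines in 1536-well plates, had been dosed by pin tool the day after seeding with one drug alone or a fixed anchor-drug dose plus five library-drug doses (not always all listed) in √10 steps. Relative viability is the nuclei count in treated wells divided by that in vehicle wells, and each value is the median of duplicate plates.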

[2] = system: H3255
In short: as §1

[3] = system: HARA
In short: as §1

[4] = system: HCC-15
In short: as §1

[5] = system: HCC-366
In short: as §1

[6] = system: LXF-289
In short: as §1

[7] = system: NCI-H1437
In short: as §1

[8] = system: NCI-H1755
In short: as §1

[9] = system: NCI-H1793
In short: as §1

[10] = system: NCI-H1915
In short: as §1

[11] = system: NCI-H1975
In short: as §1

[12] = system: NCI-H2009
In short: as §1

[13] = system: NCI-H2023
In short: as §1

[14] = system: NCI-H2405
In short: as §1

[15] = system: NCI-H3122
In short: as §1

[16] = system: NCI-H441
In short: as §1

[17] = system: NCI-H460
In short: as §1

[18] = system: NCI-H596
In short: as §1

[19] = system: NCI-H650
In short: as §1

[20] = system: PC-14
In short: as §1

[21] = system: PC-3 [JPC-3]
In short: as §1

[22] = system: SK-LU-1
In short: as §1

[23] = system: UMC-11
In short: as §1

In the case of `O=C(O)CCCCC(CCSCc1ccccc1)SCc1ccccc1` (centres undefined) [CPI-613] + O=C(c1cc(Cc2n[nH]c(=O)c3ccccc23)ccc1F)N1CCN(C(=O)C2CC2)CC1 [Olaparib] (partner 8 µM), the relative viability ([1]; first compound 5 µM) is reported as 0.775, the relative viability ([1]; first compound 15.81 µM) is reported as 0.7 and the relative viability ([1]; first compound 50 µM) is reported as 0.711. The relative viability ([1]; first compound 158.11 µM) was 0.229, the relative viability ([1]; first compound 500 µM) was 0.177 and the relative viability ([2]; first compound 5 µM) was 0.539. It also gave a relative viability ([2]; first compound 15.81 µM) of 0.587, a relative viability ([2]; first compound 50 µM) of 0.557 and a relative viability ([2]; first compound 158.11 µM) of 0.527. For the same compound, the relative viability ([2]; first compound 500 µM) was 0.517, the relative viability ([3]; first compound 5 µM) was 0.509 and the relative viability ([3]; first compound 15.81 µM) was 0.813. The relative viability ([3]; first compound 50 µM) was 0.772, the relative viability ([3]; first compound 158.11 µM) was 0.25 and the relative viability ([3]; first compound 500 µM) was 0.0476. For the same compound, the relative viability ([4]; first compound 5 µM) was 0.743, the relative viability ([4]; first compound 15.81 µM) was 0.712 and the relative viability ([4]; first compound 50 µM) was 0.612. For the same compound, the relative viability ([4]; first compound 158.11 µM) was 0.178, the relative viability ([4]; first compound 500 µM) was 0.0853 and the relative viability ([5]; first compound 5 µM) was 0.392. For the same compound, the relative viability ([5]; first compound 15.81 µM) was 0.37, the relative viability ([5]; first compound 50 µM) was 0.41 and the relative viability ([5]; first compound 158.11 µM) was 0.0554. It also gave a relative viability ([5]; first compound 500 µM) of 0.0079, a relative viability ([6]; first compound 5 µM) of 0.988 and a relative viability ([6]; first compound 15.81 µM) of 1. It also gave a relative viability ([6]; first compound 50 µM) of 1, a relative viability ([6]; first compound 158.11 µM) of 0.692 and a relative viability ([6]; first compound 500 µM) of 0.8. The relative viability ([7]; first compound 5 µM) was 0.599, the relative viability ([7]; first compound 15.81 µM) was 0.595 and the relative viability ([7]; first compound 50 µM) was 0.508. For the same compound, the relative viability ([7]; first compound 158.11 µM) was 0.112, the relative viability ([7]; first compound 500 µM) was 0.0622 and the relative viability ([8]; first compound 5 µM) was 0.91. It also gave a relative viability ([8]; first compound 15.81 µM) of 0.894, a relative viability ([8]; first compound 50 µM) of 0.954 and a relative viability ([8]; first compound 158.11 µM) of 0.751. It also gave a relative viability ([8]; first compound 500 µM) of 0.805, a relative viability ([9]; first compound 5 µM) of 0.75 and a relative viability ([9]; first compound 15.81 µM) of 0.789. For the same compound, the relative viability ([9]; first compound 50 µM) was 0.856, the relative viability ([9]; first compound 158.11 µM) was 0.146 and the relative viability ([9]; first compound 500 µM) was 0.0648. For the same compound, the relative viability ([10]; first compound 5 µM) was 0.25, the relative viability ([10]; first compound 15.81 µM) was 0.258 and the relative viability ([10]; first compound 50 µM) was 0.265. For the same compound, the relative viability ([10]; first compound 158.11 µM) was 0.124, the relative viability ([10]; first compound 500 µM) was 0.0608 and the relative viability ([11]; first compound 5 µM) was 0.745. The relative viability ([11]; first compound 15.81 µM) was 0.758, the relative viability ([11]; first compound 50 µM) was 0.85 and the relative viability ([11]; first compound 158.11 µM) was 0.563. It also gave a relative viability ([11]; first compound 500 µM) of 0.099, a relative viability ([12]; first compound 5 µM) of 0.703 and a relative viability ([12]; first compound 15.81 µM) of 0.707. It also gave a relative viability ([12]; first compound 50 µM) of 0.67, a relative viability ([12]; first compound 158.11 µM) of 0.109 and a relative viability ([12]; first compound 500 µM) of 0.0171. The relative viability ([13]; first compound 5 µM) was 0.47, the relative viability ([13]; first compound 15.81 µM) was 0.425 and the relative viability ([13]; first compound 50 µM) was 0.41. It also gave a relative viability ([13]; first compound 158.11 µM) of 0.134, a relative viability ([13]; first compound 500 µM) of 0.009 and a relative viability ([14]; first compound 5 µM) of 0.89. For the same compound, the relative viability ([14]; first compound 15.81 µM) was 0.787, the relative viability ([14]; first compound 50 µM) was 0.781 and the relative viability ([14]; first compound 158.11 µM) was 0.25. The relative viability ([14]; first compound 500 µM) was 0.0972, the relative viability ([15]; first compound 5 µM) was 0.672 and the relative viability ([15]; first compound 15.81 µM) was 0.589. It also gave a relative viability ([15]; first compound 50 µM) of 0.574, a relative viability ([15]; first compound 158.11 µM) of 0.442 and a relative viability ([15]; first compound 500 µM) of 0.609. For the same compound, the relative viability ([16]; first compound 5 µM) was 0.456, the relative viability ([16]; first compound 15.81 µM) was 0.483 and the relative viability ([16]; first compound 50 µM) was 0.596. The relative viability ([16]; first compound 158.11 µM) was 0.109, the relative viability ([16]; first compound 500 µM) was 0.0239 and the relative viability ([17]; first compound 5 µM) was 0.37. It also gave a relative viability ([17]; first compound 15.81 µM) of 0.321, a relative viability ([17]; first compound 50 µM) of 0.373 and a relative viability ([17]; first compound 158.11 µM) of 0.274. It also gave a relative viability ([17]; first compound 500 µM) of 0.361, a relative viability ([18]; first compound 5 µM) of 0.723 and a relative viability ([18]; first compound 15.81 µM) of 0.723. It also gave a relative viability ([18]; first compound 50 µM) of 0.633, a relative viability ([18]; first compound 158.11 µM) of 0.323 and a relative viability ([18]; first compound 500 µM) of 0.0561. The relative viability ([19]; first compound 5 µM) was 0.404, the relative viability ([19]; first compound 15.81 µM) was 0.393 and the relative viability ([19]; first compound 50 µM) was 0.366. The relative viability ([19]; first compound 158.11 µM) was 0.339, the relative viability ([19]; first compound 500 µM) was 0.359 and the relative viability ([20]; first compound 5 µM) was 0.283. It also gave a relative viability ([20]; first compound 15.81 µM) of 0.231, a relative viability ([20]; first compound 50 µM) of 0.262 and a relative viability ([20]; first compound 158.11 µM) of 0.078. For the same compound, the relative viability ([20]; first compound 500 µM) was 0.0073, the relative viability ([21]; first compound 5 µM) was 1.11 and the relative viability ([21]; first compound 50 µM) was 0.953. The relative viability ([21]; first compound 158.11 µM) was 0.32, the relative viability ([21]; first compound 500 µM) was 0.1 and the relative viability ([22]; first compound 5 µM) was 0.416. For the same compound, the relative viability ([22]; first compound 15.81 µM) was 0.392, the relative viability ([22]; first compound 50 µM) was 0.427 and the relative viability ([22]; first compound 158.11 µM) was 0.352. For the same compound, the relative viability ([22]; first compound 500 µM) was 0.238, the relative viability ([23]; first compound 5 µM) was 0.352 and the relative viability ([23]; first compound 15.81 µM) was 0.371. For the same compound, the relative viability ([23]; first compound 50 µM) was 0.375, the relative viability ([23]; first compound 158.11 µM) was 0.155 and the relative viability ([23]; first compound 500 µM) was 0.115.
